Columns and labels:
[1] = Bioavailability in Wistar Han rat at 0.227 mg/kg administered via nebulisation; format: ADME, organism-based; conditions: in vivo, inhaled or intranasal
[2] = Cmax in Wistar Han rat nebulized with dose level of 0.227 mg/kg; format: ADME, organism-based; design: dose 0.227 mg/kg; conditions: in vivo, inhaled or intranasal
[3] = Clearance in Beagle dog liver microsomes at 0.5 uM up to 45 mins by LC-MS/MS analysis; format: ADME, Canis lupus familiaris, microsome; conditions: 0.75 h
[4] = Cmax in Beagle dog at 1 mg/kg, po via gavage; format: ADME, organism-based, Canis lupus familiaris; design: dose 1 mg/kg, route oral; conditions: in vivo
[5] = Drug uptake in lung of C57Bl/6J mouse at 15 mg/kg/day, sc administered via continuous infusion through mini-pumps measured within 24 hrs; format: ADME, organism-based; conditions: in vivo
[6] = Protein binding in dog plasma at 1 ug/ml after 4 hrs by rapid equilibrium dialysis and LC-MS/MS analysis; format: ADME, cell-free, Canis lupus familiaris; conditions: at 1 µg/mL, read-out: PPB (converted)
[7] = Volume of distribution at steady state in Wistar Han rat at 1 mg/kg, iv via 30 mins infusion followed by 2 day washout and re-dosed via oral gavage at 3 mg/kg; format: ADME, organism-based; conditions: in vivo, read-out: Vdss
[8] = Clearance in Beagle dog blood at 1 mg/kg, iv dosed via 60 mins infusion followed by 6 days washout and re-dosed via oral gavage at 1 mg/kg; format: ADME, organism-based, Canis lupus familiaris; conditions: whole blood
[9] = Oral bioavailability in Beagle dog at 1 mg/kg via gavage; format: ADME, organism-based, Canis lupus familiaris; conditions: in vivo
Rattus norvegicus [10] = assay: Biliary clearance in Wistar Han rat assessed as unchanged parent compound level at 1 mg/kg, iv relative to total blood clearance; format: ADME, organism-based; conditions: in vivo
[11] = Protein binding in human blood at 1 ug/ml after 4 hrs by LC-MS/MS analysis; format: ADME, tissue-based; conditions: at 1 µg/mL, read-out: PB (converted)
[12] = Oral bioavailability in Wistar Han rat at 3 mg/kg via gavage; format: ADME, organism-based; conditions: in vivo
[13] = Protein binding in human blood at 1 ug/ml after 4 hrs by rapid equilibrium dialysis and LC-MS/MS analysis; format: ADME, tissue-based; conditions: at 1 µg/mL, read-out: PB (converted)
in vivo [14] = conditions: Wistar Han, rat, po, 3 mg/kg
[15] = Blood clearance in Wistar Han rat at 1 mg/kg, iv via 30 mins infusion followed by 2 day washout and re-dosed via oral gavage at 3 mg/kg; format: ADME, organism-based; conditions: whole blood
Rattus norvegicus [16] = assay: Clearance in Wistar Han rat at 1 mg/kg, iv relative to liver blood flow; format: ADME, organism-based; conditions: in vivo
[17] = Protein binding in mouse lung at 1 ug/ml after 4 hrs by rapid equilibrium dialysis and LC-MS/MS analysis; format: ADME, tissue-based; conditions: at 1 µg/mL, read-out: PB (converted)
[18] = Terminal half life in Beagle dog blood at 1 mg/kg, iv dosed via 60 mins infusion followed by 6 days washout and re-dosed via oral gavage at 1 mg/kg; format: ADME, organism-based, Canis lupus familiaris; conditions: whole blood, read-out: beta t1/2
[19] = Protein binding in human plasma at 1 ug/ml after 4 hrs by rapid equilibrium dialysis and LC-MS/MS analysis; format: ADME, cell-free; conditions: at 1 µg/mL, read-out: PPB (converted)
[20] = Bioavailability in Wistar Han rat at 1 mg/kg, it measured after 12 hrs post dose; format: ADME, organism-based; conditions: in vivo, inhaled or intranasal
[21] = Volume of distribution at steady state in Beagle dog blood at 1 mg/kg, iv dosed via 60 mins infusion followed by 6 days washout and re-dosed via oral gavage at 1 mg/kg; format: ADME, organism-based, Canis lupus familiaris; conditions: whole blood, read-out: Vdss
[22] = Drug uptake in Wistar Han rat lung at 0.227 mg/kg administered via nebulisation after 7 hrs; format: ADME, organism-based; conditions: inhaled or intranasal, read-out: Drug uptake
Canis familiaris [23] = assay: Clearance in Beagle dog at 1 mg/kg, iv relative to liver blood flow; format: ADME, organism-based, Canis lupus familiaris; conditions: in vivo
[24] = Protein binding in mouse blood at 1 ug/ml after 4 hrs by rapid equilibrium dialysis and LC-MS/MS analysis; format: ADME, tissue-based; conditions: at 1 µg/mL, read-out: PB (converted)
[25] = Clearance in Wistar Han rat liver microsomes at 0.5 uM up to 45 mins by LC-MS/MS analysis; format: ADME, microsome; conditions: 0.75 h
[26] = Protein binding in rat blood at 1 ug/ml after 4 hrs by rapid equilibrium dialysis and LC-MS/MS analysis; format: ADME, tissue-based; conditions: at 1 µg/mL, read-out: PB (converted)
[27] = Drug uptake in lung of C57Bl/6J mouse at 1.5 mg/kg/day, sc administered via continuous infusion through mini-pumps measured within 24 hrs; format: ADME, organism-based; conditions: in vivo
Canis familiaris [28] = assay: Total renal clearance in Beagle dog at 1 mg/kg, iv; format: ADME, organism-based, Canis lupus familiaris; conditions: in vivo
[29] = Clearance in CD mouse liver microsomes at 0.5 uM up to 45 mins by LC-MS/MS analysis; format: ADME, microsome; conditions: 0.75 h
[30] = Drug uptake in Wistar Han rat lung at 0.227 mg/kg administered via nebulisation up to 7 hrs; format: ADME, organism-based; conditions: in vivo, inhaled_or_intranasal
[31] = Tmax in Beagle dog blood at 1 mg/kg, iv dosed via 60 mins infusion followed by 6 days washout and re-dosed via oral gavage at 1 mg/kg; format: ADME, organism-based, Canis lupus familiaris; conditions: whole blood
[32] = Cmax in Wistar Han rat at 3 mg/kg, po via gavage; format: ADME, organism-based; design: dose 3 mg/kg, route oral; conditions: in vivo
in vivo [33] = conditions: Wistar Han, rat, inhaled or intranasal, 0.227 mg/kg
Description: Tmax in Wistar Han rat nebulized with dose level of 0.227 mg/kg

[34] = Clearance in human hepatocytes at 0.5 uM up to 60 mins by LC-MS/MS analysis; format: ADME, cell-based, Hepatocyte; conditions: 1 h
[35] = Drug uptake in Wistar Han rat lung at 6.23 mg/kg administered via nebulized inhalation for 60 mins and measured immediately after inhalation period by MALDI-MS analysis; format: ADME, organism-based; conditions: in vivo, inhaled_or_intranasal, 1 h
[36] = Clearance in CD mouse hepatocytes at 0.5 uM up to 60 mins by LC-MS/MS analysis; format: ADME, cell-based, Hepatocyte; conditions: 1 h
Rattus norvegicus [37] = assay: Total renal clearance in Wistar Han rat at 1 mg/kg, iv; format: ADME, organism-based; conditions: in vivo
[38] = Terminal half life in Wistar Han rat at 1 mg/kg, iv dosed via 30 mins infusion; format: ADME, organism-based; conditions: in vivo, read-out: beta t1/2
[39] = Protein binding in rat liver at 1 ug/ml after 4 hrs by rapid equilibrium dialysis and LC-MS/MS analysis; format: ADME, tissue-based; conditions: at 1 µg/mL, read-out: PB (converted)
[40] = Clearance in Beagle dog hepatocytes at 0.5 uM up to 60 mins by LC-MS/MS analysis; format: ADME, cell-based, Canis lupus familiaris, Hepatocyte; conditions: 1 h
[41] = Clearance in Wistar Han rat hepatocytes at 0.5 uM up to 60 mins by LC-MS/MS analysis; format: ADME, cell-based, Hepatocyte; conditions: 1 h
[42] = Protein binding in human lung at 1 ug/ml after 4 hrs by rapid equilibrium dialysis and LC-MS/MS analysis; format: ADME, tissue-based; conditions: at 1 µg/mL, read-out: PB (converted)
[43] = Protein binding in dog blood at 1 ug/ml after 4 hrs by rapid equilibrium dialysis and LC-MS/MS analysis; format: ADME, tissue-based, Canis lupus familiaris; conditions: at 1 µg/mL, read-out: PB (converted)
[44] = Bioavailability in Wistar Han rat nebulized with dose level of 0.227 mg/kg; format: ADME, organism-based; conditions: in vivo, inhaled or intranasal
[45] = Protein binding in rat kidneys at 1 ug/ml after 4 hrs by rapid equilibrium dialysis and LC-MS/MS analysis; format: ADME, tissue-based; conditions: rat kidney tissue, at 1 µg/mL, read-out: PB (converted)
[46] = Drug uptake in Wistar Han rat lung at 6.23 mg/kg administered via nebulized inhalation for 60 mins and measured after 60 mins post inhalation period by MALDI-MS analysis; format: ADME, organism-based; conditions: in vivo, inhaled_or_intranasal, 1 h
[47] = Clearance in human liver microsomes at 0.5 uM up to 45 mins by LC-MS/MS analysis; format: ADME, microsome; conditions: 0.75 h

Cc1cc(C)n(-c2cccc([C@H](CC(=O)O)CN3CC[C@@H](CCc4ccc5c(n4)NCCC5)C3)c2)n1 [GSK-3008348 FREE BASE]
bioavailability [1]: 54%
Cmax [2]: 30 to 53 ng/mL
CLH [3]: < 0.53 mL/min/g
Cmax [4]: 55 to 76 ng/mL
Drug uptake [5]: Active
fraction unbound at 4 h, 1 ug/ml [6]: 0.4
Vd [7]: 1.8 to 2.3 L/kg
clearance [8]: 25 to 33 mL/min/kg
bioavailability [9]: 27 to 34%
CL (Rattus norvegicus [10]): 24%
fraction unbound at 4 h, 1 ug/ml [11]: 0.08
bioavailability [12]: < 2%
fraction unbound at 4 h, 1 ug/ml [13]: 0.083
Tmax (in vivo [14]): 0.5 to 2 h
clearance [15]: 51 to 60 mL/min/kg
CL (Rattus norvegicus [16]): 70%
fraction unbound at 4 h, 1 ug/ml [17]: 0.1
half-life [18]: 72 to 324 min
fraction unbound at 4 h, 1 ug/ml [19]: 0.036
bioavailability [20]: 21%
Vd [21]: 2.6 to 4.7 L/kg
concentration at 7 h [22]: 10 ng/g
CL (Canis familiaris [23]): 50%
fraction unbound at 4 h, 1 ug/ml [24]: 0.211
CLH [25]: 0.55 mL/min/g
fraction unbound at 4 h, 1 ug/ml [26]: 0.294
Drug uptake [27]: Active
CL (Canis familiaris [28]): 21%
CLH [29]: 3 mL/min/g
Drug uptake [30]: 716 ng
Tmax [31]: 15 to 30 min
Cmax [32]: 3 to 9 ng/mL
Tmax (in vivo [33]): 12 min
CLH [34]: < 0.86 mL/min/g
Drug uptake [35]: Active
CLH [36]: 15.3 mL/min/g
CL (Rattus norvegicus [37]): 15%
half-life [38]: 48 to 54 min
fraction unbound at 4 h, 1 ug/ml [39]: 0.085
CLH [40]: < 1.73 mL/min/g
CLH [41]: 9.45 mL/min/g
fraction unbound at 4 h, 1 ug/ml [42]: 0.108
fraction unbound at 4 h, 1 ug/ml [43]: 0.228
bioavailability [44]: 40 to 63%
fraction unbound at 4 h, 1 ug/ml [45]: 0.027
Drug uptake [46]: Not Active
CLH [47]: 0.58 mL/min/g
